Where two headings read alike, the source gives them in different places.
Legend:
[1] = biological target: eeAChE (Electrophorus electricus AChE) (Electrophorus electricus, UniProt O42275); experiment: Cholinesterase inhibition assay (modified Ellman's method), eeAChE; type: biochemical; conditions: for SI eeAChE: ratio eqBChE IC50/eeAChE IC50
Description: (§1) Compound series A and B were initially screened for their cholinesterase activity against eeAChE (Electrophorus electricus AChE) and eqBChE (equine serum butyrylcholinesterase), using an adaptation of the Ellman’s method. […]. […] Similarly, replacing the terminal triple bond in 7l with a nitrile group reduced its activity, while replacing the O-propargyl group with an N,N-dipropargyl group in 10 enhanced the inhibition of both enzymes, particularly BChE (Table ). The installation of an additional aryl ring in 7o further improved AChE inhibition, slightly increasing selectivity toward this enzyme. […]. […]. […]. The inhibitory activity of the synthesized compounds toward eeAChE and eqBChE was evaluated spectrophotometrically through a 96-well microplate modified Ellman’s method. The solutions of both enzymes were prepared as 0.025 U/mL in phosphate buffer at pH 7, from stock solutions of 5.05 U/mL and 7.50 U/mL, respectively. The stock solutions for the target compounds (0.1 M) were prepared in dimethyl sulfoxide (DMSO). […] The reaction mixture was prepared with 100 μL of the enzyme (eeAChE or eqBChE) and 50 μL of the test compound (or DMSO/water, not exceeding 0.2% of DMSO in the wells; i.e blank samples). After 5 min of the preincubation period at 37 °C, 50 μL of ATChI or BTChI and 50 μL of DTNB were added to each well, thus initiating the enzymatic reaction. The absorbance values were measured at 415 nm, for a total of 7.5 min, at every 2.5 min, using a microplate reader (Synergy multimode reader; BioTek). […]. All experiments were performed in triplicate.

[2] = biological target: T1, Aβ42 peptide (Homo sapiens, UniProt P05067); experiment: TEM of Aβ42 fibril growth; conditions: Aβ42 10 μM, compound 50 μM, 6–48 h, 37 °C
T1 construct: Synthetic Aβ42 (GenScript) was dissolved in hexafluoro-2-propanol (HFIP); purchased GenScript; host or cells: chemical synthesis
Description: We selected compound 11r for further investigation of its ability to interfere with the Aβ42 aggregation process in vitro. The decision was based on the structural potential of the chromeno[3,4-b]-xanthone scaffold, the encouraging results for 11r, and its overall profile in our preliminary studies. […] The morphological changes of Aβ42 species were assessed through transmission electron microscopy (TEM), in the presence and absence of 11r. […] In the absence of 11r (Figure , top panels), as early as 6 h of incubation at 37 °C, (white arrow), short (white arrowhead) and long fibrils were detected. As incubation progressed, long fibrils were more abundant, while other species became scarce, resulting in bundles of tangled fibrils after 48 h (Figure ).
Synthetic Aβ42 (GenScript) was dissolved in hexafluoro-2-propanol (HFIP) (Merck) and left at room temperature (RT) for 48 h. Subsequently, the HFIP was removed using a stream of nitrogen, and the resulting powder was dissolved in dimethyl sulfoxide (DMSO) (Sigma-Aldrich) at a concentration of 2000 μM. […]
The βnalysis of the morphology and fibril formation of samples coincubated with Aβ42 (10 μM) (GenScript) and the selected compounds (50 μM) at different time-points (6, 12, 24, and 48 h) at 37 °C, was assessed through TEM. […]

[3] = system: Aβ42 aggregates in SH-SY5Y (SHwt) cells; experiment: Confocal microscopy (ThT) of Aβ42 aggregates in SH-SY5Y cells expressing APP695; conditions: 25 μM compound with Aβ42 10 μM, 48 h
Description: A stock solution of Aβ42 (GenScript) was prepared in DMSO to a concentration of 2000 μM. SH-SY5Y cells stably expressing wild-type APP695 (SHwt) were used. The cells were cultured in Dulbecco’s Modified Eagle Medium (DMEM, Gibco), supplemented with 10% of Fetal Bovine Serum (FBS, Sigma-Aldrich), and 2% of Pen-Strep-Glut (Gibco). […] 2.0 × 10^4 SH-WT cells were plated in 24-well plates and incubated for 24 h, in 12 ømm glass coverslips. […] Cells incubated with Aβ42 and 1% DMSO were used as the positive control. After this period, the medium was changed to fresh DMEM medium without FBS, and the cells were incubated for another 24 h. After the incubation period, cells were washed with PBS, fixed in 4% formaldehyde for 30 min, permeabilized with 0.2% Triton X-100 in PBS for 10 min and blocked with 1% BSA for 10 min. […] Cells were washed three times between each step. Coverslips with cells were mounted with CitiFluor MWL4–88 (Electron Microscopy Sciences).

[4] = in vitro; conditions: for Prediction (penetration into the CNS): class from PAMPA-BBB P e; for Papp at 2.5 h: pig, PAMPA, pH 7.4
Description: To assess BBB permeability, a parallel artificial membrane permeability assay (PAMPA)-BBB was performed, which predicts passive BBB permeability using a brain lipid porcine membrane.
The prediction of the brain penetration was evaluated using a PAMPA-BBB. […] Next, 100 μL of these stock solutions were added to a solution of 1400 μL of EtOH and 3500 μL of PBS at pH 7.4, to reach 30% of EtOH concentration in the experiment. These solutions were filtered, using Filter PDVF membrane units (diameter 30 mm, pore size 0.45 μm, from Symta). After this, the acceptor 96-well microplate (Multiscreen, catalogue no. MAMCS9610, from Millipore) was filled with 180 μL of PBS/EtOH (70/30). […] After 5 min, 180 μL of each compound solution was added. 1–2 mg of each selected compound was dissolved in 1500 μL of EtOH and 3500 μL of PBS at pH 7.4, filtered, and then added to the donor 96-well plate to determine their ability to cross the brain barrier. After this, the donor plate was carefully put on the acceptor plate to form a “sandwich” and incubated for 2.5 h at 25 °C. During this period, the compounds diffused from the donor plate through the brain lipid membrane into the acceptor plate. Afterward, the donor plate was removed. A 96-well plate UV reader (Thermoscientific, Multiskan spectrum) was used to determine the concentration of compounds and commercial drugs in the acceptor and donor wells. Every sample was analyzed at three to five wavelengths, in three wells, and in two independent runs. […] Ten quality control compounds (previously mentioned) of known BBB permeability were included in each experiment to validate the analysis set.

[5] = biological target: T2, eqBChE (equine serum butyrylcholinesterase) (Equus caballus, UniProt P81908); experiment: Cholinesterase inhibition assay (modified Ellman's method), eqBChE; type: biochemical
T2 construct: eqBChE (equine serum butyrylcholinesterase); from tissue; host or cells: equine serum
Description: as §1

Sequence of eeAChE (Electrophorus electricus AChE) (O42275 24-633): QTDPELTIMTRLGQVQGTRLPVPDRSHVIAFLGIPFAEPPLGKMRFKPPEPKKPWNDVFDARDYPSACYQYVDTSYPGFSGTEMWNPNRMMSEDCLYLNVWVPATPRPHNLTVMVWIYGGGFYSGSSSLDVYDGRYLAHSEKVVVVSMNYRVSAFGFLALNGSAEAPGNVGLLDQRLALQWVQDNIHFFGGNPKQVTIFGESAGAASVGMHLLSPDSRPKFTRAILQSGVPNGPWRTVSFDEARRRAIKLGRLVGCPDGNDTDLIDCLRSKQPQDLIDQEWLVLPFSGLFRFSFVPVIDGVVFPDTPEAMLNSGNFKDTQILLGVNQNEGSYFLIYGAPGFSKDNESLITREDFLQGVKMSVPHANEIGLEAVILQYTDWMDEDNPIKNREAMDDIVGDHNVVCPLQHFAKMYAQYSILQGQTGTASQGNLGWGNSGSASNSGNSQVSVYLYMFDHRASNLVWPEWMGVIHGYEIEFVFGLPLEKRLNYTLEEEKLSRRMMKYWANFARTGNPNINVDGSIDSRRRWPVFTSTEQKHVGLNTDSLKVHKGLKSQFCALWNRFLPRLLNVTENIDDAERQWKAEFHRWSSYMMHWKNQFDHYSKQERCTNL
T2 sequence (P81908 whole entry): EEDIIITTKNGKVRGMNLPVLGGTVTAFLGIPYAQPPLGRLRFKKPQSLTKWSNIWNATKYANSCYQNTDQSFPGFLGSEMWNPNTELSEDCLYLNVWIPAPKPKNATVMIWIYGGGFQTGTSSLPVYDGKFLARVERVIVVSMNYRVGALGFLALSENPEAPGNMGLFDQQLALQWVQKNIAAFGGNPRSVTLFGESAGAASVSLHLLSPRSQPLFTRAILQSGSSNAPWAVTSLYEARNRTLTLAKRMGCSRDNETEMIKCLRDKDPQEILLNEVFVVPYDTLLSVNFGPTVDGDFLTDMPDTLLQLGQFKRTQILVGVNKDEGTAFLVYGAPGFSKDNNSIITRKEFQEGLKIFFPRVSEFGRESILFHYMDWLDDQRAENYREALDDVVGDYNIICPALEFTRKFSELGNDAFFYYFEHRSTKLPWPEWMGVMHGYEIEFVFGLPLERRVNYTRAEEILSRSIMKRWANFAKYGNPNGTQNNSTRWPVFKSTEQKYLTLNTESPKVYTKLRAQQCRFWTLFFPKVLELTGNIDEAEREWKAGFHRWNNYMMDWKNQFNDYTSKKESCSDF
T1 sequence (P05067 672-713 limits assumed): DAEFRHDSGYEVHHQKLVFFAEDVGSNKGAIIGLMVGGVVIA

Compound	IC50 [1] [µM]	SI eeAChE [1]	Effect on Aβ42 fibril morphology (TEM) [2]	Reduction in intracellular Aβ42 aggregates (ThT fluorescence) [3]	Prediction (penetration into the CNS) [4]	Papp at 2.5 h [4] [×10⁻⁶ cm/s]	IC50 [5] [µM]	IC50 ([1]; mean ± SEM, n = 3, n.a = nonactive, IC50 determined only if inhibition higher than 50% at 20 μM) [µM]
COc1ccc2c(=O)c3cc4c(cc3oc2c1)-c1cc(Cl)ccc1OC4 [Compound 11r, 2-Chloro-11-methoxy-6H,8H-chromeno[3,4-b]xanthen-8-one]	2.1 ± 0.9	3.00	inhibiting Aβ42 fibrillogenesis	approximately 70%	CNS+ (High BBB permeation predicted (CNS+) P e > 3.93)	7.12 ± 0.89	6.3 ± 0.6	
C#CCN(CC#C)c1ccccc1/C=C/c1cc(=O)c2ccccc2o1 [Compound 10, (E)-2-{2-[Di(prop-2-yn-1-yl)amino]styryl}-4H-chromen-4-one]		0.68			CNS+ (High BBB permeation predicted (CNS+) P e > 3.93)	11.6 ± 3.39	5.9 ± 0.4	8.7 ± 0.5

From paper PMC12818745 (ACS Chemical Neuroscience, 2025)
